Test results published in PubChem BioAssay (NCI).
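Cells were grown in 96-well plates and exposed to each compound for 48 hours at five concentrations; endpoints were interpolated linearly between bracketing concentrations, or set to the highest concentration if not reached. GI50: concentration for 50% inhibition of growth. TGI: concentration producing complete growth inhibition.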

Experiments:
Test in all cases: DTP human tumour cell line panel, 48 h
[1] = test system: HOP-62 NSCLC
[2] = test system: LOX IMVI melanoma
[3] = test system: MALME-3M melanoma
[4] = test system: MDA-MB-231 breast
[5] = test system: PC-3 prostate
[6] = test system: RPMI-8226 leukemia
[7] = test system: SF-295 CNS
[8] = test system: SNB-19 CNS
[9] = test system: SR leukemia
[10] = test system: TK-10 renal

Row | Structure (SMILES) | TGI [1] [µM] | TGI [2] [µM] | TGI [3] [µM] | TGI [4] [µM] | TGI [5] [µM] | TGI [6] [µM] | TGI [7] [µM] | TGI [8] [µM] | TGI [9] [µM] | TGI [10] [µM] | GI50 [1] [µM] | GI50 [2] [µM] | GI50 [3] [µM] | GI50 [4] [µM] | GI50 [5] [µM] | GI50 [6] [µM] | GI50 [7] [µM] | GI50 [8] [µM] | GI50 [9] [µM] | GI50 [10] [µM]
1 | C1CN(c2nnc(N3CCC3)nn2)C1 | > 100 | 36.1 | > 79.3 | > 60.2 | > 60 | > 100 | 69.6 | > 79.5 | > 100 | > 100 |  |  |  |  |  |  |  |  |  | 
2 | O=C(O)/C(Cc1cn[nH]n1)=N\O | > 100 | > 100 | > 100 | > 100 | > 100 | > 100 | > 100 | > 100 | > 100 | > 100 |  |  |  |  |  |  |  |  |  | 
3 | COc1ccc(-c2cncn2-c2cc(OC)c(OC)c(OC)c2)cc1 | > 71.6 | > 80.9 |  | 25.7 | > 40 | 3.29 | > 14.8 | > 100 | 6.59 | 27.1 | 0.101 | 0.857 | < 0.0163 | 0.465 | 0.552 | 0.451 | 0.0311 | 0.349 | 2.09 | 0.139
4 | COc1cccc2cc(N(C)c3nc(C)nc4c3CCC4)ccc12 | 13.1 | 13.8 | 27.9 | 14.7 | 16.4 | 18.5 | 12.5 | 21.6 | 11.3 | 30.5 | < 0.01 | < 0.01 | 12 | < 0.01 | < 0.01 | < 0.01 | < 0.01 | < 0.01 | < 0.01 | 9.32
5 | CS(=O)(=O)Nc1cccc(-c2ccc3ncnc(Nc4ccc(F)c(Cl)c4)c3c2)c1 | 4.2 | 2.89 | 5.1 | 3.45 | 5.89 | 7.59 | 3.08 | 4.78 | 5.32 | 2.26 | 1.81 | 1.46 | 1.97 | 1.4 | 1.94 | 2.07 | 1.47 | 1.55 | 1.43 | 0.0801
6 | COC(=O)c1c(-c2cccs2)oc(-c2cccs2)c1C(=O)OC | > 100 | > 63.1 | 64 | > 94.5 | > 100 | 92.7 | 51.8 | > 100 | > 100 | 82 | 32.8 | 31.9 | 25 | 34 | 26.3 | 13.1 | 19.4 | > 100 | > 100 | 27.9
7 | CCN(CC)CCCC(C)Nc1cc(-c2cccc(OC(F)(F)F)c2)nc2ccc(N3CCCC3)cc12 (centres undefined) | > 48.2 | 14.6 | 32.6 | 14.9 | > 49.5 | 13.1 | 11.9 | > 100 | > 100 | > 93.1 | 0.0806 | 0.0638 | 0.0679 | 0.195 | 0.28 | 0.0788 | 0.0404 | 0.118 | 0.0365 | 8.82
8 | O=C(O)/C(Cc1ccnc2ccccc12)=N\O | > 100 | > 100 | > 100 | > 100 | > 100 | > 100 | > 100 | > 100 | > 100 | > 100 |  |  |  |  |  |  |  |  |  | 
9 | O=C(CN(/C=C/C(=O)C(F)(F)F)c1ccc(Cl)cc1)c1ccc(Cl)c(Cl)c1 | 23.8 | 16.6 | 22.3 | 20.9 | 16.7 | 17 | 17.4 | 33.6 | 6.96 | 20.1 | 11.5 | 4.13 | 9.98 | 7.05 | 4.25 | 3.74 | 4.98 | 15.4 | 2.26 | 7.38
10 | CCOC(=O)C(Cc1ccc(N(CCCl)CCCl)cc1)NC(=O)C(Cc1ccccc1)NC=O (centres undefined) | 0.388 | 0.301 | 0.191 | 0.344 | 0.406 | 0.355 | 0.523 | 0.624 | 0.824 | 0.275 |  |  |  |  |  |  |  |  |  | 
